Data published in ChEMBL document CHEMBL4507292 (2021).

Assays:
[1] = target: Serine/threonine-protein kinase BRSK1 (Homo sapiens) (UniProt Q8TDC3); conditions: Compound concentration 1000.0 nM
[2] = target: Mitogen-activated protein kinase kinase kinase 10 (Homo sapiens) (UniProt Q02779); conditions: Compound concentration 1000.0 nM
[3] = target: G protein-coupled receptor kinase 3 (Homo sapiens) (UniProt P35626); conditions: Compound concentration 1000.0 nM
[4] = target: cGMP-dependent protein kinase 1 (Homo sapiens) (UniProt Q13976); conditions: Compound concentration 1000.0 nM
[5] = target: T1, Alpha-2A adrenergic receptor (Homo sapiens) (UniProt P08913); conditions: Compound concentration 10.0 uM
T1 sequence (whole entry): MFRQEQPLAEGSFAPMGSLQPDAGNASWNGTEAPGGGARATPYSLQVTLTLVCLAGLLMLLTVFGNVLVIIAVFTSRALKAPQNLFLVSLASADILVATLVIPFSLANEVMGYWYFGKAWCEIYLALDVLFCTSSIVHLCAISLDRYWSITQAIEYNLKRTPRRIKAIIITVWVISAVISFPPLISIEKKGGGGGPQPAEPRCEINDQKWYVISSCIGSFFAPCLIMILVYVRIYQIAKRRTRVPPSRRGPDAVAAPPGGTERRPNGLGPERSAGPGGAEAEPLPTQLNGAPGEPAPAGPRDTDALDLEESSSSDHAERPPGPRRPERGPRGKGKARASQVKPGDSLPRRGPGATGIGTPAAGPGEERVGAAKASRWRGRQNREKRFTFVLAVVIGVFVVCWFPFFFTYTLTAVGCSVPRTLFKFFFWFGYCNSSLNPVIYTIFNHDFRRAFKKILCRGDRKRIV

[6] = target: Proto-oncogene tyrosine-protein kinase ROS (Homo sapiens) (UniProt P08922); conditions: Compound concentration 1000.0 nM
[7] = target: Cyclin-dependent kinase 2 homolog (Plasmodium falciparum (isolate 3D7)) (UniProt P61075); conditions: Compound concentration 1000.0 nM
Sequence of Cyclin-dependent kinase 2 homolog (Plasmodium falciparum (isolate 3D7)) (P61075 whole entry): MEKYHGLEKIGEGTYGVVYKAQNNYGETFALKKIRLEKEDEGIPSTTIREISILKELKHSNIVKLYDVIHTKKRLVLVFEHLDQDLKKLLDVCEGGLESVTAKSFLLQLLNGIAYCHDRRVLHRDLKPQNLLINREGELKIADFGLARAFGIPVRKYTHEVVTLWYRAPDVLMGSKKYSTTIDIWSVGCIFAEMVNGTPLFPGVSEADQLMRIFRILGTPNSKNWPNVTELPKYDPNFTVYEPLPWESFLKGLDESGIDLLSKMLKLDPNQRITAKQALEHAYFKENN

[8] = target: Tyrosine-protein kinase Fgr (Homo sapiens) (UniProt P09769); conditions: Compound concentration 1000.0 nM
[9] = target: Serine/threonine-protein kinase MRCK alpha (Homo sapiens) (UniProt Q5VT25); conditions: Compound concentration 1000.0 nM
[10] = target: MAP kinase-interacting serine/threonine-protein kinase 2 (Homo sapiens) (UniProt Q9HBH9); conditions: Compound concentration 1000.0 nM
[11] = target: Dual specificity tyrosine-phosphorylation-regulated kinase 2 (Homo sapiens) (UniProt Q92630); conditions: Compound concentration 1000.0 nM
[12] = target: Tyrosine-protein kinase receptor Tie-1 (Homo sapiens) (UniProt P35590); conditions: Compound concentration 1000.0 nM
[13] = tested on: Tyrosine-protein kinase ABL1 (Homo sapiens), P00519 [E255K]; conditions: Compound concentration 1000.0 nM
[14] = target: Cyclin-dependent kinase 15 (Homo sapiens) (UniProt Q96Q40); conditions: Compound concentration 1000.0 nM
[15] = target: Serine/threonine-protein kinase WNK2 (Homo sapiens) (UniProt Q9Y3S1); conditions: Compound concentration 1000.0 nM
[16] = target: Serine/threonine-protein kinase N2 (Homo sapiens) (UniProt Q16513); conditions: Compound concentration 1000.0 nM
[17] = target: Vascular endothelial growth factor receptor 3 (Homo sapiens) (UniProt P35916); conditions: Compound concentration 1000.0 nM
[18] = target: SRSF protein kinase 1 (Homo sapiens) (UniProt Q96SB4); conditions: Compound concentration 1000.0 nM
[19] = target: Serine/threonine-protein kinase 3 (Homo sapiens) (UniProt Q13188); conditions: Compound concentration 1000.0 nM
[20] = target: T2, Alpha-2B adrenergic receptor (Homo sapiens) (UniProt P18089); conditions: Compound concentration 10.0 uM
T2 sequence (whole entry): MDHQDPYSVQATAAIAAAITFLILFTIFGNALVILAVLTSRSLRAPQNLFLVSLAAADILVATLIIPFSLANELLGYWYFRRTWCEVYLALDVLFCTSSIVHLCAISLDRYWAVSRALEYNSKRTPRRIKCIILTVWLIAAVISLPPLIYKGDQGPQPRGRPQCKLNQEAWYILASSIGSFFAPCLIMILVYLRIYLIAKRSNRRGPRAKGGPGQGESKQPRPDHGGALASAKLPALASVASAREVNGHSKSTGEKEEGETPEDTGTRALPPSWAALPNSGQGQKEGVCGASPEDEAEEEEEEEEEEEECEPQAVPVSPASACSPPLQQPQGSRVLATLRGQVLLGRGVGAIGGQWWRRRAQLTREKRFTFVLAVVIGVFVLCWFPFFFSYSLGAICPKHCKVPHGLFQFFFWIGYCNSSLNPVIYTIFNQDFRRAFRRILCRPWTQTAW

[21] = target: Maternal embryonic leucine zipper kinase (Homo sapiens) (UniProt Q14680); conditions: Compound concentration 1000.0 nM
Sequence of Maternal embryonic leucine zipper kinase (Homo sapiens) (Q14680 whole entry, looked up): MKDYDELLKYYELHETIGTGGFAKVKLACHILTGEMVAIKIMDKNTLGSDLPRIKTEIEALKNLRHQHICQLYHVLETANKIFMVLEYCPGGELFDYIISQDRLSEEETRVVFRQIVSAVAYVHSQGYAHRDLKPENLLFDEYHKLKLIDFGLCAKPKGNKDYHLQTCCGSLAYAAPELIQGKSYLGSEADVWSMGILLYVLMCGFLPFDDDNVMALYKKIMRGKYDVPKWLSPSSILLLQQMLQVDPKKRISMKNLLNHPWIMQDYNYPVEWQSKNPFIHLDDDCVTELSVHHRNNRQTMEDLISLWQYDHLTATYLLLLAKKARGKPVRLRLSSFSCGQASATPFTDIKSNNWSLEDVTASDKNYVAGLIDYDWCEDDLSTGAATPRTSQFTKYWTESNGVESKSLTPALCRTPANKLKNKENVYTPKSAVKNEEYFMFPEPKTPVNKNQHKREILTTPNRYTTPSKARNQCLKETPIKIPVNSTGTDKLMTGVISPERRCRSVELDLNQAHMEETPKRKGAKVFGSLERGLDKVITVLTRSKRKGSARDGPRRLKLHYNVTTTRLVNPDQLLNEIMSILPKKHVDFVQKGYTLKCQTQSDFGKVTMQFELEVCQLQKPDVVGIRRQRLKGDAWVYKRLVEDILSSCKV

[22] = target: Beta-adrenergic receptor kinase 1 (Homo sapiens) (UniProt P25098); conditions: Compound concentration 1000.0 nM
Sequence of Beta-adrenergic receptor kinase 1 (Homo sapiens) (P25098 whole entry): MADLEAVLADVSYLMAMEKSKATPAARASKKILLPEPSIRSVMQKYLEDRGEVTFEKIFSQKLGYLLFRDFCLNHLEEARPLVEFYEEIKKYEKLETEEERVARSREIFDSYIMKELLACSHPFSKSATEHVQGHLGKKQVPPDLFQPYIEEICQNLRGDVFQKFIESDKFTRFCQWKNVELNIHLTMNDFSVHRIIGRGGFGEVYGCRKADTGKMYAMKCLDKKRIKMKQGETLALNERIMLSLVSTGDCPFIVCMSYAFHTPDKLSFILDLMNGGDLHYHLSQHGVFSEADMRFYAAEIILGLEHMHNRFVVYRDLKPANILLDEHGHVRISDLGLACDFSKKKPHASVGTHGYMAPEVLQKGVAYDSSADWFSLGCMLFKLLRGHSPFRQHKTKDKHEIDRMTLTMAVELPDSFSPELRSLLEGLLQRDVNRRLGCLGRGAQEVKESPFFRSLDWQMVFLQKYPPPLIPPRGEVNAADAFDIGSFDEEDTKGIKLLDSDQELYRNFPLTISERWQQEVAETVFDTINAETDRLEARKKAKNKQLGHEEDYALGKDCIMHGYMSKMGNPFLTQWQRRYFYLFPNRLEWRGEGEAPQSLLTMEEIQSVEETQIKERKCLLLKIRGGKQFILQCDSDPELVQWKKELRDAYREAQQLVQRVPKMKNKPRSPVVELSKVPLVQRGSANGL

[23] = target: Non-receptor tyrosine-protein kinase TNK1 (Homo sapiens) (UniProt Q13470); conditions: Compound concentration 1000.0 nM
Sequence of Non-receptor tyrosine-protein kinase TNK1 (Homo sapiens) (Q13470 whole entry, canonical isoform): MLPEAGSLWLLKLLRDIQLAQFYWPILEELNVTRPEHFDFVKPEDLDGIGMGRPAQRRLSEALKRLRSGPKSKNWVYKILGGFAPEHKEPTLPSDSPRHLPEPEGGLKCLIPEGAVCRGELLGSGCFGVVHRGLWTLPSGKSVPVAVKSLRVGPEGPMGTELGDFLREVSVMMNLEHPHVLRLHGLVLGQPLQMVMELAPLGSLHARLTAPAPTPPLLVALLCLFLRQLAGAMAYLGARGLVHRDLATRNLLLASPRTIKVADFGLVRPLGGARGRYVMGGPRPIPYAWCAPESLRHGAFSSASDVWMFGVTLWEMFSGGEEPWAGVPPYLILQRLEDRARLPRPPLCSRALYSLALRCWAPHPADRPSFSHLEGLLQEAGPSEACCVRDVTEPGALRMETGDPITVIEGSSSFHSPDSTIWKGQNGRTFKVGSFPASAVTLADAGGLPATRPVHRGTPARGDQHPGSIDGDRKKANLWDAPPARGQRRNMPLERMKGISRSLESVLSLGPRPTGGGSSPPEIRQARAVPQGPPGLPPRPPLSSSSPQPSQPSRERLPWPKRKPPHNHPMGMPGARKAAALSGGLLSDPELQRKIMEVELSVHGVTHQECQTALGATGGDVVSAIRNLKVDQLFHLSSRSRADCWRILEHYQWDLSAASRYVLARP

[24] = target: Phosphorylase b kinase gamma catalytic chain, skeletal muscle/heart isoform (Homo sapiens) (UniProt Q16816); conditions: Compound concentration 1000.0 nM
Sequence of Phosphorylase b kinase gamma catalytic chain, skeletal muscle/heart isoform (Homo sapiens) (Q16816 whole entry, looked up, canonical isoform): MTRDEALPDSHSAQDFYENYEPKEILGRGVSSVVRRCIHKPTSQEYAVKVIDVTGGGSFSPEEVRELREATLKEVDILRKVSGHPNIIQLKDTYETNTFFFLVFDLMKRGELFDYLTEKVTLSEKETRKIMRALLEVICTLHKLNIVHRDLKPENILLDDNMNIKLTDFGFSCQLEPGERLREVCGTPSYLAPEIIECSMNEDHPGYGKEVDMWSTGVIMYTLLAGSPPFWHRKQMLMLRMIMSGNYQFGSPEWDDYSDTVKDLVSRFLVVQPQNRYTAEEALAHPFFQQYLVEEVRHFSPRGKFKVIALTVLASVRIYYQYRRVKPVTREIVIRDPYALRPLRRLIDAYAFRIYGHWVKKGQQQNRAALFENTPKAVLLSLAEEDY

[25] = target: Casein kinase I isoform gamma-2 (Homo sapiens) (UniProt P78368); conditions: Compound concentration 1000.0 nM
[26] = target: Rhodopsin kinase GRK1 (Homo sapiens) (UniProt Q15835); conditions: Compound concentration 1000.0 nM
[27] = target: Cyclin-dependent kinase 11B (Homo sapiens) (UniProt P21127); conditions: Compound concentration 1000.0 nM
Sequence of Cyclin-dependent kinase 11B (Homo sapiens) (P21127 whole entry): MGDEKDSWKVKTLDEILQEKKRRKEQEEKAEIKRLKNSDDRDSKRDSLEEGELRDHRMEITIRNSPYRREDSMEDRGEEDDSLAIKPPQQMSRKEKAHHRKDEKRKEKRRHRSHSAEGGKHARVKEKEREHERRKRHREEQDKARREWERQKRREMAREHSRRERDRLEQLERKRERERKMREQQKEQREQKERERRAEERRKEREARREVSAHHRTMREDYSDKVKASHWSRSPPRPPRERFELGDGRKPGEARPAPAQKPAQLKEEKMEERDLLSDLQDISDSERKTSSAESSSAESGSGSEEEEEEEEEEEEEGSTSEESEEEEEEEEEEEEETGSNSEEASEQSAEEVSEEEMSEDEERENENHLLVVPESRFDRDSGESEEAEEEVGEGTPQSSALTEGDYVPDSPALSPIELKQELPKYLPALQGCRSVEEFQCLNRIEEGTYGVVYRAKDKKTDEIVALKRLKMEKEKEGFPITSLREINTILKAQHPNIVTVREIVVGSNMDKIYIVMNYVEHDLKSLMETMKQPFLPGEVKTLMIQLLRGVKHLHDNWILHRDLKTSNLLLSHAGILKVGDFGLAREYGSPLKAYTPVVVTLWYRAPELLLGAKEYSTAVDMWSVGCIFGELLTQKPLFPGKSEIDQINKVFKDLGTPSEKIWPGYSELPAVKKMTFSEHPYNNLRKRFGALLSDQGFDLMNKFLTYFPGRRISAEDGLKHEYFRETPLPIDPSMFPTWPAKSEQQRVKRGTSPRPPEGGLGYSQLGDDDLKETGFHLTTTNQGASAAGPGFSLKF

[28] = target: Death-associated protein kinase 2 (Homo sapiens) (UniProt Q9UIK4); conditions: Compound concentration 1000.0 nM
[29] = target: Calcium/calmodulin-dependent protein kinase type II subunit alpha (Homo sapiens) (UniProt Q9UQM7); conditions: Compound concentration 1000.0 nM
[30] = target: Eukaryotic translation initiation factor 2-alpha kinase 1 (Homo sapiens) (UniProt Q9BQI3); conditions: Compound concentration 1000.0 nM
[31] = tested on: Hepatocyte growth factor receptor (Homo sapiens), P08581 [M1250T]; conditions: Compound concentration 1000.0 nM
[32] = target: Misshapen-like kinase 1 (Homo sapiens) (UniProt Q8N4C8); conditions: Compound concentration 1000.0 nM
[33] = target: Calcium/calmodulin-dependent protein kinase type II subunit delta (Homo sapiens) (UniProt Q13557); conditions: Compound concentration 1000.0 nM
Sequence of Calcium/calmodulin-dependent protein kinase type II subunit delta (Homo sapiens) (Q13557 whole entry): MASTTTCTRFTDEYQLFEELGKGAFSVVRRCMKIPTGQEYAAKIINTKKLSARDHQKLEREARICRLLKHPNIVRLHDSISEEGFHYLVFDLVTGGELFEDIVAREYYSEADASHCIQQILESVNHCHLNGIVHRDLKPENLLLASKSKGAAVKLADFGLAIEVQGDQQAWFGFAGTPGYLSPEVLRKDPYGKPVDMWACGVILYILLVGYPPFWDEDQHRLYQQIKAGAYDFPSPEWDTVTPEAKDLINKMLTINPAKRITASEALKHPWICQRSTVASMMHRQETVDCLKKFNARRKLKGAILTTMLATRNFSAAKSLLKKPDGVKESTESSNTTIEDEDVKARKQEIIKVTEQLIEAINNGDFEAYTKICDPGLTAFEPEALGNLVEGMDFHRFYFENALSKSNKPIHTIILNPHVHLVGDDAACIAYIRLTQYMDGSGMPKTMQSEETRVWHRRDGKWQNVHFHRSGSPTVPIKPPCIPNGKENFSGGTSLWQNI

Sequence of Serine/threonine-protein kinase BRSK1 (Homo sapiens) (Q8TDC3 whole entry): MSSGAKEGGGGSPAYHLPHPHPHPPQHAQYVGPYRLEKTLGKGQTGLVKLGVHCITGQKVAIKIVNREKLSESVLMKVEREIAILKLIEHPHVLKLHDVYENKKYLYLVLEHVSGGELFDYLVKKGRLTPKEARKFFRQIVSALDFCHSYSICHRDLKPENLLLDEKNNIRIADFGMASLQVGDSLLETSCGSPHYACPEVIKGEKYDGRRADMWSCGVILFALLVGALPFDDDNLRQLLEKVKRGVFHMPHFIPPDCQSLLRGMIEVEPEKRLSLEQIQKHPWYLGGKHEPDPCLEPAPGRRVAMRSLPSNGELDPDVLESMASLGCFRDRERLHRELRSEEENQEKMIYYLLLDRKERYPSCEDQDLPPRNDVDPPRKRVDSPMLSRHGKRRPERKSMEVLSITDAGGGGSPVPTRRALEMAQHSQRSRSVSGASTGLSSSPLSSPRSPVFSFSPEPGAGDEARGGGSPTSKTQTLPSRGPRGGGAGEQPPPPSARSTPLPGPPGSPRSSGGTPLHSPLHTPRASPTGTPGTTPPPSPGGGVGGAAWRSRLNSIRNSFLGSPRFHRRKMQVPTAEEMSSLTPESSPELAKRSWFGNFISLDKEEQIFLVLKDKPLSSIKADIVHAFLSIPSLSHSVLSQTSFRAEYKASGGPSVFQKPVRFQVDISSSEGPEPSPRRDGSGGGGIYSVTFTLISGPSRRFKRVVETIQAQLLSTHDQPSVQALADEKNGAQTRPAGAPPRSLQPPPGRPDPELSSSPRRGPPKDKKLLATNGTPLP

| SMILES | residual activity [1] [%] | residual activity [2] [%] | residual activity [3] [%] | residual activity [4] [%] | inhibition [5] [%] | residual activity [6] [%] | residual activity [7] [%] | residual activity [8] [%] | residual activity [9] [%] | residual activity [10] [%] | residual activity [11] [%] | residual activity [12] [%] | residual activity [13] [%] | residual activity [14] [%] | residual activity [15] [%] | residual activity [16] [%] | residual activity [17] [%] | residual activity [18] [%] | residual activity [19] [%] | inhibition [20] [%] | further results |
| --- | --- | --- | --- | --- | --- | --- | --- | --- | --- | --- | --- | --- | --- | --- | --- | --- | --- | --- | --- | --- | --- |
| Cc1c(C(=O)O)cc(-c2ccc(C3CCNCC3)cc2)c2ccc(-c3ccc(C(F)(F)F)cc3)cc12 [PPTN-NC] | 100 | 100 | 71 | 97 | 34.8 | 100 | 100 | 100 | 100 | 100 | 100 | 100 | 96 | 100 | 100 | 100 | 100 | 100 | 100 | 79 | residual activity [21]: 100%; residual activity [22]: 100%; residual activity [23]: 100%; residual activity [24]: 100%; residual activity [25]: 100%; residual activity [26]: 100%; residual activity [27]: 100%; residual activity [28]: 100%; residual activity [29]: 100%; residual activity [30]: 77%; residual activity [31]: 97%; residual activity [32]: 100%; residual activity [33]: 100% |
| O=C(O)c1cc(-c2ccc(C3CCNCC3)cc2)c2ccc(-c3ccc(C(F)(F)F)cc3)cc2c1 [PPTN] | 100 | 100 | 68 | 100 | 38.2 | 100 | 100 | 100 | 100 | 100 | 100 | 100 | 87 | 96 | 100 | 100 | 100 | 86 | 100 | 85.4 | residual activity [21]: 98%; residual activity [22]: 100%; residual activity [23]: 100%; residual activity [24]: 100%; residual activity [25]: 100%; residual activity [26]: 100%; residual activity [27]: 100%; residual activity [28]: 100%; residual activity [29]: 100%; residual activity [30]: 98%; residual activity [31]: 86%; residual activity [32]: 98%; residual activity [33]: 100% |
